Patent US20100286278A1, “Composition comprising an HDAC inhibitor in combination with a retinoid” (DSM IP ASSETS B.V., priority 2004, published 2010)

System: transglutaminase 1 (TG1) mRNA in human epidermal keratinocytes
Experiment: Expression of transglutaminase 1 (TG1) by differentiating keratinocytes (real time PCR of TG1 mRNA)
Type: cell-based
Details: substances alone: retinol 1×10−10 M, TSA 10−9 M; 1.3 mM calcium; 72 hours; relative to non-treated cells
Source text: This example illustrates how the HDAC inhibitor Trichostatin A and Retinol work synergistically. An in vitro cell culture of human primary keratinocytes has been chosen as test system. This in vitro cell culture model is useful to study differentiation processes and is able to simulate the in vivo situation in human skin (Poumay et al., 1999). To monitor differentiation processes in vitro and in vivo transglutaminase 1 is a well known marker molecule (Polakowska et al., 1999).
Epidermal keratinocytes were isolated from human foreskin biopsies and cultured in keratinocyte serum free medium (KSFM made by GIBCO) in a growth chamber with 37° C. and 5% CO2. At the second passage, cells were transferred to 6 well plates and allowed to reach approximately 50% surface confluence.
Retinol and TSA were solubilized in ethanol or ethanol/tetrahydrofuran respectively. Retinol solutions were handled under yellow light conditions only. […]
Seventy-two hours after the beginning of the treatment, cells were harvested and the RNA extracted. […] Relative quantification of TG1 mRNA transcript levels in control versus treatment cultures were determined using multiplexed real time PCR analysis. […]

SMILES	modulation of the terminal differentiation process in epidermal keratinocytes (TG1 mRNA)
CC1=C(/C=C/C(C)=C/C=C/C(C)=C/CO)C(C)(C)CCC1 [Retinol]	only weak modulation
CC(/C=C/C(=O)NO)=C\[C@@H](C)C(=O)c1ccc(N(C)C)cc1 [TSA, Trichostatin A]	only weak modulation
